From publication PMC9610793, “Novel Aporphine- and Proaporphine–Clerodane Hybrids Identified from the Barks of Taiwanese Polyalthia longifolia (Sonn.) Thwaites var. pendula with Strong Anti-DENV2 Activity” (Pharmaceuticals, 2022)

Legend:
DENV2 = assay: In vitro anti-DENV2 post-infection assay: DENV2 RNA level by RT-qPCR in DENV2-infected Huh-7 cells; assay type: cell-based, DENV serotype 2 (strain 16681); conditions: for IC50 / EC50: Dengue virus; for IC50: DENV2, Huh-7, 72 h, read-out: IC50 (concentration of the compound resulting in a 50% inhibition in virus production); for EC50: DENV2-infected Huh-7 cells, range over compounds 1–4; for SI (selectivity index, SI = CC50/IC50): CC50 in uninfected Huh-7 cells / IC50 against DENV2
Description: Concerning their biological activity, the anti-DENV2 activity of polyalongarins A–D (1–4) was examined using post-infection assay. The DENV2-infected Huh-7 cells were incubated with each of 1–4 at a concentration of 5, 10, or 20 μM for 72 hrs (0.2 μM celastrol and 0.1% DMSO served as positive control and mock control, respectively). […] Based on previous reports, a compound that diminishes the DENV activity by 90% but presents a 50% cytotoxic concentration (CC50) > 15 μM is considered a “hit”. By this definition, compounds 1–4 are good hits without doubt.
(§1) Figure 5 In vitro anti-DENV2 assay for 1–4. (A) DENV2-infected/uninfected Huh-7 cells were incubated with celastrol (Cela, 0.2 μM, positive control) or indicated concentrations of 1–4 (5 to 25 μM) for 72 h. Total DENV2 RNA expression (%) was extracted and quantified. The DENV2 RNA level was measured by RT-qPCR. The DENV2 RNA expression was normalized by cellular GAPDH mRNA. (B) DENV2-infected Huh-7 cells were treated with 10 μM of 1–4. The NS2B protein expression was analyzed by western blotting with anti-NS2B and anti-GAPDH antibodies (a loading control). (C) The cell viability (%) was determined by the XTT method. Treatment with 0.1% DMSO served as a mock control. The results are expressed as the means ± standard errors of the means (SEM) of triplicate experiments.
Huh-7 human liver carcinoma cell line, purchased from Bioresources Collection and Research Center, Taiwan, were maintained in Dulbecco’s modified Eagle’s medium (DMEM) supplemented with 10% fetal bovine serum (FBS), 1% non-essential amino acids (NEAA), and 1% penicillin and streptomycin at 37 °C in a humidified 5% CO2 incubator. The DENV serotype 2 (strain 16681) was directly from the Centers for Disease Control, Department of Health, Taiwan, and was amplified in Aedes albopictus C6/36 cell line (CRL-1660, ATCC, USA). C6/36 cells were cultured in RPMI 1640 medium supplemented with 2% FBS. Huh-7 cells were seeded at a density of 5 × 10^4 cells/mL in the 24-well plate for 16–20 h and then infected with DENV2 at a multiplicity of infection (MOI) of 0.1 PFU/cell for 2 h at 37 °C. The viral titer was determined in a plaque assay in the Huh-7 cells. Then, DENV2-infected Huh-7 cells were washed with PBS and refilled, respectively, with DMEM−2% FBS medium containing […] (positive control), 0.1% DMSO (mock control), and various indicating concentration of test compounds. After incubation at 37 °C for 72 h, DENV2-infected Huh-7 cells were harvested and cell lysates were prepared for quantification of DENV RNA by RT-qPCR. Total cellular RNA was extracted using Total RNA Miniprep Purification Kit (GMbiolab, Taiwan) according to the manufacturer’s instructions.

[1] = Cytotoxic assay (XTT cell viability); assay type: cell-based; conditions: human, uninfected Huh-7 cells, read-out: CC50 (concentration of the compound causing a 50% growth inhibition of uninfected Huh-7 cells)
Description: as §1
In structural elucidation, the optical rotations were determined using a JASCO P-1020 polarimeter (Jasco Co., Tokyo, Japan); the ultraviolet spectra (UV) were recorded on a JASCO V530 UV/VIS spectrophotometer; the circular dichroism spectroscopy (CD) were recorded on a JASCO J-815 spectrophotometer; the infrared spectra (IR) were recorded on a Mattson Genesis II FT-IR spectrophotometer (Thermo Nicolet, Madison, WI, USA); electrospray ionization mass (ESIMS) and high-resolution ESIMS data were measured using a VG Biotech Quattro 5022 mass spectrometer (VG Biotech, UK); nuclear magnetic resonance (NMR) spectra were collected on a Varian Unity Inova-400 MHz NMR system; the single crystal X-ray diffraction of pure compounds was determined by Bruker APEX II X-ray single crystal diffractometer. In chemical isolation and separation, column chromatography (CC) was applied including silica gel 60 (70–230 and 230–400 mesh, Merck, Darmstadt, Germany), Sephadex LH-20 (Pharmacia), and pre-coated silica gel TLC plates (aluminum Merck Silica gel 60 F254). […] In biological evaluation, cell viability/cytotoxicity assay was evaluated using CellTiter 96 AQueous One Solution Cell Proliferation Assay (Promega, Madison, WI, USA) according to the manufacturer’s instructions, where the color intensity was detected at 490 nm using a 550 BioRad plate-reader for determining the number of viable cells in proliferation. Computational modeling analyzed by PyMOL 2.0 software (creator is Warren L. DeLano; published by Schrödinger, Inc. 2017; and the latest vision is PyMOL 2.5 vision).
Huh-7 cells were seeded in 96-well plates at a density 5 × 10^4 cells/well in 120 μL of culture medium and incubated for 6 hr in a humidified CO2 (5%) atmosphere. […] Then, the XTT method was applied to cell viability evaluation: cells were dyed by 2,3-bis(2-methyloxy-4-nitro-5-sulfophenyl)-2H-tetrazolium-5-carboxanilide and recorded by an enzyme-linked immunosorbent assay (ELISA) plate reader (at UV 490 nm). […]

Row | Compound | IC50 (DENV2) [µM] | CC50 at 72 h [1] [µM] | EC50 (DENV2) [µM] | SI (selectivity index, SI = CC50/IC50) (DENV2)
1 | CC1=C(O)C(=O)C=C2C1=CC=C1[C@@]2(C)CC[C@@]2(C)[C@@H]3C[C@](C)(C(=O)O)CC[C@]3(C)CC[C@]12C [Celastrol, reference compound] | 0.12 ± 0.01 |  |  | 
2 | CC1=CCCC2C1(C)CCC(C)C2(C)CCC1=CC(=O)OC1N1CCc2cc3c(c4c2C1Cc1ccccc1-4)OCO3 (stereo not shown) [polyalongarin A (1), Polyalongarin A] | 4.46 ± 0.12 | > 200 | 2.8 to 6.4 | 
3 | COc1c2c3c(c(OC)c1OC)-c1ccccc1C[C@H]3N([C@@H]1OC(=O)C=C1CC[C@@]1(C)[C@H](C)CC[C@@]3(C)C(C)=CCC[C@H]13)CC2 [polyalongarin B (2), Polyalongarin B] | 2.8 ± 0.23 | 50.4 ± 10.2 | 2.8 to 6.4 | 18
4 | COc1cc2c(cc1O)CC1c3c(cc(OC)c(OC)c3-2)CCN1C1OC(=O)C=C1CCC1(C)C(C)CCC2(C)C(C)=CCCC21 (stereo not shown) [polyalongarin C (3), Polyalongarin C] | 3.24 ± 0.16 | 69.1 ± 14 | 2.8 to 6.4 | 21.3
5 | COc1cc2c3c(c1OC)C1(C=CC(=O)C=C1)C[C@H]3N([C@@H]1OC(=O)C=C1CC[C@@]1(C)[C@H](C)CC[C@@]3(C)C(C)=CCC[C@H]13)CC2 [polyalongarin D (4), Polyalongarin D] | 6.36 ± 0.09 | 94.5 ± 10.2 | 2.8 to 6.4 | 14.9
